pIC50: −log10 of the molar value.
Target: T1, Nuclear receptor ROR-gamma (Homo sapiens, UniProt P51449)
T1 sequence (P51449 whole entry): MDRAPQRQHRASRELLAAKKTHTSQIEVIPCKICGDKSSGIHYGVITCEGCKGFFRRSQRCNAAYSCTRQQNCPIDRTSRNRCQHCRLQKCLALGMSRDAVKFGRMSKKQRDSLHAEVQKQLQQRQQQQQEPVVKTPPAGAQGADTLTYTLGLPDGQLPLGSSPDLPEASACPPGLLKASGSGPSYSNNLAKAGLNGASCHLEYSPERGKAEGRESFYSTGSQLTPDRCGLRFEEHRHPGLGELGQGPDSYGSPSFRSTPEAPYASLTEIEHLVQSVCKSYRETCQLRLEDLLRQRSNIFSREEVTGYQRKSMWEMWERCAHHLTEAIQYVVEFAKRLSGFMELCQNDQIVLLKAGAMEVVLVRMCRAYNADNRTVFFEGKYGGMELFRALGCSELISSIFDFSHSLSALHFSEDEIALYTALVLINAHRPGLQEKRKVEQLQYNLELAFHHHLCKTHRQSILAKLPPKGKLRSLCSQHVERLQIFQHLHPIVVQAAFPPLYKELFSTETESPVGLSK
Assay: ROR gamma t 5xRORE Assay in Jurkat Cells (Assay 2): Compounds of the present invention were tested for ROR gamma inverse agonist activity in a cell-based, transcriptional activity assay. […] (Promega, Cat. # N1021) using KpnI and HindIII restriction sites. […] Luciferase activity in the conditioned supernatants was determined with NanoGlo assay reagents (Promega, Cat.# N1130).

pIC50: > 7.00
Structure (SMILES): CCS(=O)(=O)c1ccc(C2(NC(=O)c3cnc4c(c3)CN(Cc3ccc(C(F)(F)F)cc3)[C@H]4C(C)C)CC2)nc1

From ChEMBL document CHEMBL5727282, “Dihydropyrrolopyridine inhibitors of ROR-gamma” (2019)
